Data reported in patent US7435820B2, “Substituted tetrahydro-1H-pyrazolo [3,4-c]pyridines compositions comprising them, and use” (Aventis Pharma S.A., priority 2003, dated 2008).
Like-named read-outs stand apart in the source and are kept apart here.

Experiments:
[1] = molecular target: T1, human KDR enzyme (Homo sapiens, UniProt P35968); test: KDR kinase inhibition: phosphorylation of PLCγ SH2-SH3 substrate by KDR enzyme, 33P-ATP scintillation plate; format: biochemical
T1 construct: The cytoplasmic domain of the human KDR enzyme was cloned in GST fusion form; GST; made in house; host or cells: SF21 insect cells (baculovirus, pFastBac)
Method: The inhibitory effect of the compounds is determined in an assay for phosphorylation of substrate by the KDR enzyme in vitro using a scintillation technique (96-well plate, NEN).
The cytoplasmic domain of the human KDR enzyme was cloned in GST fusion form into the baculovirus expression vector pFastBac. The protein was expressed in SF21 cells and purified to approximately 60% homogeneity. The KDR kinase activity is measured in 20 mM MOPS, 10 mM MgCl2, 10 mM MnCl2, 1 mM DTT, 2.5 mM EGTA, 10 mM b-glycerophosphate, pH=7.2, in the presence of 10 mM MgCl2, 100 μM Na3VO4 and 1 mM NaF. 10 μl of the compound are added to 70 μl of kinase buffer containing 100 ng of KDR enzyme at 4° C. The reaction is initiated by adding 20 μl of solution containing 2 μg of substrate (SH2-SH3 fragment of PLCγ expressed in the form of an GST fusion protein), 2 μCi γ ^33P[ATP] and 2 μM cold ATP. After incubation for 1 hour at 37° C., the reaction is stopped by adding 1 volume (100 μl) of 200 mM EDTA. The incubation buffer is removed and the wells are washed three times with 300 μl of PBS. The radioactivity is measured in each well using a Top Count NXT (Packard) radioactivity counter.
The background noise is determined by measuring the radioactivity in four different wells containing the radioactive ATP and the substrate alone.
A total activity control is measured in four different wells containing all the reagents (γ^33P-[ATP], KDR and PLC-γ substrate) but in the absence of compound.
The inhibition of the KDR activity with the compound of the invention is expressed as percentage inhibition of the control activity determined in the absence of compound.
The compound SU5614 (Calbiochem) (1 μM) is included in each plate as inhibition control.

[2] = molecular target: T2, human Tie2 (Homo sapiens, UniProt Q02763); test: Tie2 kinase inhibition: phosphorylation of GST-PLC (SH2-SH3 fragments) by GST-Tie2, 33P-ATP flashplate; format: biochemical
T2 construct: human Tie2 corresponding to amino acids 776-1124 of the intracellular domain was generated by PCR; made in house; host or cells: baculovirus expression system (vector pFastBacGT)
Method: The coding sequence of human Tie2 corresponding to amino acids 776-1124 of the intracellular domain was generated by PCR using the cDNA isolated from human placenta as model. This sequence was introduced into a baculovirus expression vector pFastBacGT in the form of a GST fusion protein.
The inhibitory effect of the molecules is determined in an assay for phosphorylation of PLC by Tie2 in the presence of GST-Tie2 purified to approximately 80% homogeneity. The substrate is made up of the SH2-SH3 fragments of PLC, the latter being expressed in the form of a GST fusion protein.
The kinase activity of Tie2 is measured in a 20 mM MOPS buffer, pH 7.2, containing 10 mM MgCl2, 10 mM MnCl2, 1 mM DTT and 10 mM of glycerophosphate. A reaction mixture made up of 70 μl of kinase buffer containing 100 ng of GST-Tie2 enzyme per well is placed in a flashplate 96-well plate kept on ice. 10 μl of the molecule to be tested, diluted in DMSO, at a concentration of at most 10% are then added. For a given concentration, each measurement is carried out in quadruplicate. The reaction is initiated by adding 20 μl of solution containing 2 μg of GST-PLC, 2 μM of cold ATP and 1 μCi of ^33P[ATP]. After incubation for 1 hour at 37° C., the reaction is stopped by adding 1 volume (100 μl) of 200 mM EDTA. After removal of the incubation buffer, the wells are washed three times with 300 μl of PBS. The radioactivity is measured on a Wallac MicroBeta 1450.
The inhibition of the Tie2 activity is calculated and expressed as percentage inhibition with respect to the control activity determined in the absence of compound.

[3] = Assay 1, read-out: KDR % Inhib at 10 μM Assay 1
[4] = Assay 2, read-out: KDR % Inhib at 10 μM Assay 2
[5] = Assay 1, read-out: Tie2 % Inhib at 10 μM (FRX) Assay 1
[6] = Assay 2, read-out: Tie2 % Inhib at 10 μM (FRX) Assay 2

T1 sequence (P35968 786-1356 limits assumed): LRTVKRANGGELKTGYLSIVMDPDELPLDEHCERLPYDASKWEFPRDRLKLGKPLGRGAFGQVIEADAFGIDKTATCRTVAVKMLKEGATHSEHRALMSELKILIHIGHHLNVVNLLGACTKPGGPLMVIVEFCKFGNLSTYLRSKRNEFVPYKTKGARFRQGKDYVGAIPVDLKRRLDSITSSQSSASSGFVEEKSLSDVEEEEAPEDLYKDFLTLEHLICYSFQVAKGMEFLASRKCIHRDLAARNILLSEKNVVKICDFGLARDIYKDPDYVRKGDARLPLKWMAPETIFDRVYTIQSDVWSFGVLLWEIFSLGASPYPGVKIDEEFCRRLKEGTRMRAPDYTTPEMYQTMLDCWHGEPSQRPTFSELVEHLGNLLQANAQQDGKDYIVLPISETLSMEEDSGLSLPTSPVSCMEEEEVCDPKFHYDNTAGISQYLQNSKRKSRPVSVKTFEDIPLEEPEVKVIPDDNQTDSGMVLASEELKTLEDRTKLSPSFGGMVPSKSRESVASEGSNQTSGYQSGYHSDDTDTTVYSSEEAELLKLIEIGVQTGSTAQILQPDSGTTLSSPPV
T2 sequence (Q02763 776-1124): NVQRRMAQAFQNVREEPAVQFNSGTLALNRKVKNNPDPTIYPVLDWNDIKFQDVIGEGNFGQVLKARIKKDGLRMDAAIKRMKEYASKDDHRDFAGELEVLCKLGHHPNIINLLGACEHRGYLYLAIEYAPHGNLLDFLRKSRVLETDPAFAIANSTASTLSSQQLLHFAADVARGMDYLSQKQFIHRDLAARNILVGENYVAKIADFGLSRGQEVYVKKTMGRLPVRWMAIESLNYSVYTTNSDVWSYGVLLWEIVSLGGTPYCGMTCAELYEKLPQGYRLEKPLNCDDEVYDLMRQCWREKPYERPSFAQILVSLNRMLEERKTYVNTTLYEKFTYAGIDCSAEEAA

| inhibition at 10 µM ([1]; read-out: KDR % Inhib. 10 μM) | inhibition at 10 µM ([2]; read-out: Tie2 % Inhib. 10 μM) | inhibition at 10 µM [1, 3] | inhibition at 10 µM [1, 4] | inhibition at 10 µM [2, 5] | inhibition at 10 µM [2, 6] | SMILES |
| --- | --- | --- | --- | --- | --- | --- |
| 48% | 92.5% |  |  |  |  | Cc1cc2nc(-c3[nH]nc4c3CCN(S(=O)(=O)c3ccccc3)C4)[nH]c2cc1C [Chemistry 23] |
|  |  | 53.2% | 45.1% | 82.6% | 85.9% | Cc1cc2nc(-c3[nH]nc4c3CCN(C(=O)c3ccccc3OCc3ccccc3)C4)[nH]c2cc1C [Example P-31378-112-9] |
|  |  | 42.3% | 28.7% | 90.6% | 87.9% | Cc1cc2nc(-c3[nH]nc4c3CCN(C(=O)c3ccccc3Nc3cccc(Cl)c3C)C4)[nH]c2cc1C [Example P-31375-112-10] |
| 73% | 96.7% |  |  |  |  | Cc1cc2nc(-c3[nH]nc4c3CCN(C(=O)c3ccccc3Cl)C4)[nH]c2cc1C [Chemistry 46] |
| 33.4% | 94.1% |  |  |  |  | Cc1cc2nc(-c3[nH]nc4c3CCN(C(=O)C3CC3)C4)[nH]c2cc1C [Chemistry 45] |
|  |  | 90.2% | 89.1% | 88.7% | 88.3% | Cc1cc2nc(-c3[nH]nc4c3CCN(C(=O)c3ccccc3NCc3ccco3)C4)[nH]c2cc1C [Example P-31378-112-16] |
|  |  | 86.8% | 89% | 87.8% | 93.3% | Cc1cc2nc(-c3[nH]nc4c3CCN(C(=O)c3ccccc3NCc3ccccc3)C4)[nH]c2cc1C [Example P-31378-112-8] |
|  |  | 94.7% | 95.4% | 87.1% | 86.4% | Cc1cc2nc(-c3[nH]nc4c3CCN(C(=O)c3ccccc3Oc3ccccc3)C4)[nH]c2cc1C [Example P-31378-112-5] |
| 41.2% | 88.3% |  |  |  |  | Cc1cccc(S(=O)(=O)N2CCc3c(n[nH]c3-c3nc4cc(C)c(C)cc4[nH]3)C2)c1 [Chemistry 37] |
| 63.3% | 85.9% |  |  |  |  | Cc1cc2nc(-c3[nH]nc4c3CCN(C(=O)Nc3cccs3)C4)[nH]c2cc1C [Chemistry 65] |
| 15.3% | 44.2% |  |  |  |  | CCCCS(=O)(=O)N1CCc2c(n[nH]c2-c2nc3cc(C)c(C)cc3[nH]2)C1 [Chemistry 30] |
| 42% | 83.8% |  |  |  |  | Cc1cc2nc(-c3[nH]nc4c3CCN(C(=O)c3ccc(Cl)cc3)C4)[nH]c2cc1C [Chemistry 48] |
|  |  | 56.2% | 50.1% | 83.1% | 87.2% | Cc1cc2nc(-c3[nH]nc4c3CCN(C(=O)c3ccccc3Nc3cccc(C(F)(F)F)c3)C4)[nH]c2cc1C [Example P-31378-112-4] |
| -0.3% | 23.8% |  |  |  |  | Cc1cc2nc(-c3[nH]nc4c3CCN(C(=O)Nc3ccc(Cl)cc3)C4)[nH]c2cc1C [Chemistry 63] |
| 18% | 38.5% |  |  |  |  | CCCCNC(=O)N1CCc2c(n[nH]c2-c2nc3cc(C)c(C)cc3[nH]2)C1 [Chemistry 64] |
| 75.2% | 94.6% |  |  |  |  | Cc1cc2nc(-c3[nH]nc4c3CCN(C(=O)c3cccs3)C4)[nH]c2cc1C [Chemistry 57] |
| 27.4% | 88.8% |  |  |  |  | Cc1ccc(S(=O)(=O)N2CCc3c(n[nH]c3-c3nc4cc(C)c(C)cc4[nH]3)C2)cc1 [Chemistry 35] |
| 70.8% | 91.5% |  |  |  |  | Cc1cc2nc(-c3[nH]nc4c3CCN(S(=O)(=O)Cc3ccccc3)C4)[nH]c2cc1C [Chemistry 24] |
| 27.9% | 82.3% |  |  |  |  | Cc1cc2nc(-c3[nH]nc4c3CCN(C(=O)c3ccc(S(C)(=O)=O)cc3)C4)[nH]c2cc1C [Chemistry 58] |
| 15.9% | 65.4% |  |  |  |  | Cc1cc2nc(-c3[nH]nc4c3CCN(C(=O)CN(C)C)C4)[nH]c2cc1C [Chemistry 55] |
